Laboratory results reported in patent publication US10934310B2, “Inhibitors of Bruton's tyrosine kinase and method of their use” (JANSSEN PHARMACEUTICA NV, priority 2015, dated 2021).

Target: unphosphorylated-BTK kinase domain (UP-BTK), GST-tagged human BTK (389-659aa) (Homo sapiens (Human), UniProt Q06187)
Assay: BTK Kinase Lanthascreen Binding Assay
Conditions: for BTK_I_binding pIC50: pIC50 = negative log of the IC50 in molar; for IC50: read-out: BTK_I_binding pIC50 (converted)
Experimental: BTK Kinase Lanthascreen Binding Assay:
A BTK kinase lanthascreen binding assay monitors compound binding to unphosphorylated-BTK kinase domain (UP-BTK), by competing with a fluorescent labeled tracer. […] Data were analyzed using Xlfit™ version 5.3 from ID Business Solutions (Guildford), Microsoft Excel add-in. pIC50 refers to the negative log of the IC50 in molar.

[1] = compound, 50 nM Tracer 236, 2 nM anti-GST antibody, 60 minutes
[2] = Lanthascreen binding, 60 minutes incubation

Chain of unphosphorylated-BTK kinase domain (UP-BTK), GST-tagged human BTK (389-659aa) (Q06187 389-659): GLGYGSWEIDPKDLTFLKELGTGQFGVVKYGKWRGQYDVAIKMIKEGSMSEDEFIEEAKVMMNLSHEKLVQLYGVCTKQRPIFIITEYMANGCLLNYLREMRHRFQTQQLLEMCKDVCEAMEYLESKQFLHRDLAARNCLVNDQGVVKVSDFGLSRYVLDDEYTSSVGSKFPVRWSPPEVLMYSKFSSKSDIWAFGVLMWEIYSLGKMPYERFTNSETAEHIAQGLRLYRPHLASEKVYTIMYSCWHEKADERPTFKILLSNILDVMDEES

## C=CC(=O)N[C@H]1CCCC[C@H]1NC(=O)c1sc2nccc3c2c1NC(=O)N3c1cccc(-c2ccccc2)c1 [Example 106, 5-([1,1′-Biphenyl]-3-yl)-N-((1R,2S)-2-acrylamidocyclohexyl)-4-oxo-4,5-dihydro-3H-1-thia-3,5,8-triazaacenaphthylene-2-carboxamide]
[1]
  BTK_I_binding pIC50: 8.06

## N[C@H]1CCC[C@H]1NC(=O)c1sc2nccc3c2c1NC(=O)N3c1ccnc(-c2ccccc2)c1 [Example 263, N-((1R,2S)-2-Aminocyclopentyl)-4-oxo-5-(2-phenylpyridin-4-yl)-4,5-dihydro-3H-1-thia-3,5,8-triazaacenaphthylene-2-carboxamide]
[1]
  BTK_I_binding pIC50: 6.38

## CC(=O)N[C@@H]1CCC[C@H]1NC(=O)c1sc2nccc3c2c1NC(=O)N3c1ccc(Oc2ccccc2)cc1C [Example 11, N-((1R,2R)-2-Acetamidocyclopentyl)-5-(2-methyl-4-phenoxyphenyl)-4-oxo-4,5-dihydro-3H-1-thia-3,5,8-triazaacenaphthylene-2-carboxamide]
[1]
  BTK_I_binding pIC50: 7.24

## Cc1nc(Oc2ccccc2)ccc1N1C(=O)Nc2c(C(=O)N[C@@H]3CCCC[C@@H]3N)sc3nccc1c23 (single isomer, unassigned) [Example 333, N-((1R,2S)-2-Aminocyclohexyl)-5-(*S)-(2-methyl-6-phenoxypyridin-3-yl)-4-oxo-4,5-dihydro-3H-1-thia-3,5,8-triazaacenaphthylene-2-carboxamide]
[2]
  BTK_I_binding pIC50: 6.50

## Cc1cc(Oc2ccccc2)ccc1N1C(=O)Nc2c(C(=O)N[C@@H]3CCC[C@H](N)C3)sc3nccc1c23 (single isomer, unassigned) [Example 261, N-((1R,3S)-3-Aminocyclohexyl)-5-(*S)-(2-methyl-4-phenoxyphenyl)-4-oxo-4,5-dihydro-3H-1-thia-3,5,8-triazaacenaphthylene-2-carboxamide]
[1]
  BTK_I_binding pIC50: 6.42

## CC(=O)N[C@H]1CCC[C@H](NC(=O)c2sc3nccc4c3c2NC(=O)N4c2ccc(Oc3ccccc3)cc2C)C1 (single isomer, unassigned) [Example 243, N-((1S,3S)-3-Acetamidocyclohexyl)-5-(*S)-(2-methyl-4-phenoxyphenyl)-4-oxo-4,5-dihydro-3H-1-thia-3,5,8-triazaacenaphthylene-2-carboxamide]
[1]
  BTK_I_binding pIC50: 6.85

## CC(=O)N[C@H]1CCN(C(=O)c2sc3nccc4c3c2NC(=O)N4c2ccc(Oc3ccccc3)cc2C)C1 [Example 419, (S)—N-(1-(5-(2-Methyl-4-phenoxyphenyl)-4-oxo-4,5-dihydro-3H-1-thia-3,5,8-triazaacenaphthylene-2-carbonyl)pyrrolidin-3-yl)acetamide]
[2]
  BTK_I_binding pIC50: 5.79

## C=CC(=O)N[C@H]1CCCC[C@H]1NC(=O)c1sc2nccc3c2c1NC(=O)N3c1ccc(OC2CCC2)nc1C (single isomer, unassigned) [Example 242, N-((1R,2S)-2-Acrylamidocyclohexyl)-5-(*R)-(6-cyclobutoxy-2-methylpyridin-3-yl)-4-oxo-4,5-dihydro-3H-1-thia-3,5,8-triazaacenaphthylene-2-carboxamide]
[1]
  BTK_I_binding pIC50: 7.04

## Cc1cc(Oc2ccccc2)ccc1N1C(=O)Nc2c(C(=O)N[C@H]3CCC[C@@H]3N(C)C)sc3nccc1c23 [Example 32, N-((1S,2S)-2-(Dimethylamino)cyclopentyl)-5-(2-methyl-4-phenoxyphenyl)-4-oxo-4,5-dihydro-3H-1-thia-3,5,8-triazaacenaphthylene-2-carboxamide]
[1]
  BTK_I_binding pIC50: 7.12

## C=CC(=O)N[C@H]1CCC[C@H]1NC(=O)c1sc2nccc3c2c1NC(=O)N3c1ccc(-n2ccccc2=O)nc1C [Example 477, N-((1R,2S)-2-Acrylamidocyclopentyl)-5-(6′-methyl-2-oxo-2H-[1,2′-bipyridin]-5′-yl)-4-oxo-4,5-dihydro-3H-1-thia-3,5,8-triazaacenaphthylene-2-carboxamide]
[2]
  BTK_I_binding pIC50: 6.85

## CC(=O)N[C@H]1CCC[C@H]1NC(=O)c1sc2nccc3c2c1NC(=O)N3c1ccc(Oc2ccccc2)cc1C [Example 37, N-((1R,2S)-2-Acetamidocyclopentyl)-5-(2-methyl-4-phenoxyphenyl)-4-oxo-4,5-dihydro-3H-1-thia-3,5,8-triazaacenaphthylene-2-carboxamide]
[1]
  BTK_I_binding pIC50: 6.68

## CCC(=O)N[C@@H]1CCCC[C@H]1NC(=O)c1sc2nccc3c2c1NC(=O)N3c1ccc(Oc2ccccc2)cc1C [Example 52, 5-(2-Methyl-4-phenoxyphenyl)-4-oxo-N-((1R,2R)-2-propionamidocyclohexyl)-4,5-dihydro-3H-1-thia-3,5,8-triazaacenaphthylene-2-carboxamide]
[1]
  BTK_I_binding pIC50: 6.01

## Cc1nc(Oc2ccccc2)ccc1N1C(=O)Nc2c(C(=O)N[C@H]3CCC[C@@H](N)C3)sc3nccc1c23 (single isomer, unassigned) [Example 414, N-((1S,3R)-3-Aminocyclohexyl)-5-(*S)-(2-methyl-6-phenoxypyridin-3-yl)-4-oxo-4,5-dihydro-3H-1-thia-3,5,8-triazaacenaphthylene-2-carboxamide]
  IC50: > 1000 nM

## Cc1cc(OCC(C)C)ncc1N1C(=O)Nc2c(C(=O)N[C@@H]3CCC[C@@H]3N)sc3nccc1c23 (single isomer, unassigned) [Example 397, N-((1R,2S)-2-Aminocyclopentyl)-5-(*S)-(6-isobutoxy-4-methylpyridin-3-yl)-4-oxo-4,5-dihydro-3H-1-thia-3,5,8-triazaacenaphthylene-2-carboxamide]
[2]
  BTK_I_binding pIC50: 6.62

## C=CC(=O)N[C@H]1CCC[C@H]1NC(=O)c1sc2nccc3c2c1NC(=O)N3c1cncc(-c2ccccc2)c1 [Example 192, N-((1R,2S)-2-Acrylamidocyclopentyl)-4-oxo-5-(5-phenylpyridin-3-yl)-4,5-dihydro-3H-1-thia-3,5,8-triazaacenaphthylene-2-carboxamide]
[1]
  BTK_I_binding pIC50: 7.92

## N[C@@H]1CCCC[C@H]1NC(=O)c1sc2nccc3c2c1NC(=O)N3c1ccc(Oc2ccccc2)cc1 [Example 149, N-((1R,2R)-2-Aminocyclohexyl)-4-oxo-5-(4-phenoxyphenyl)-4,5-dihydro-3H-1-thia-3,5,8-triazaacenaphthylene-2-carboxamide]
[1]
  BTK_I_binding pIC50: 6.45

## C=CC(=O)N[C@H]1CCC[C@H]1NC(=O)c1sc2nccc3c2c1NC(=O)N3c1ccc(Oc2cncnc2)cn1 [Example 485, N-((1R,2S)-2-Acrylamidocyclopentyl)-4-oxo-5-(5-(pyrimidin-5-yloxy)pyridin-2-yl)-4,5-dihydro-3H-1-thia-3,5,8-triazaacenaphthylene-2-carboxamide]
[2]
  BTK_I_binding pIC50: 6.59

## CCC(=O)N[C@H]1CC[C@H](NC(=O)c2sc3nccc4c3c2NC(=O)N4c2ccc(Oc3ccccc3)nc2C)C1 (single isomer, unassigned) [Example 409, 5-(*S)-(2-Methyl-6-phenoxypyridin-3-yl)-4-oxo-N-((1S,3S)-3-propionamidocyclopentyl)-4,5-dihydro-3H-1-thia-3,5,8-triazaacenaphthylene-2-carboxamide]
  IC50: > 1000 nM

## Cc1cc(OC(C)C)ccc1N1C(=O)Nc2c(C(=O)N[C@@H]3CCC[C@@H]3N)sc3nccc1c23 [Example 453, N-((1R,2S)-2-Aminocyclopentyl)-5-(4-isopropoxy-2-methylphenyl)-4-oxo-4,5-dihydro-3H-1-thia-3,5,8-triazaacenaphthylene-2-carboxamide]
[2]
  BTK_I_binding pIC50: 6.32

## C=CC(=O)N[C@H]1CC[C@@H](NC(=O)c2sc3nccc4c3c2NC(=O)N4c2cnc(Oc3ccccc3)cc2C)C1 (single isomer, unassigned) [Example 359, N-((1R,3S)-3-Acrylamidocyclopentyl)-5-(*S)-(4-methyl-6-phenoxypyridin-3-yl)-4-oxo-4,5-dihydro-3H-1-thia-3,5,8-triazaacenaphthylene-2-carboxamide]
[2]
  BTK_I_binding pIC50: 8.05

## C=CC(=O)N[C@@H]1CCC[C@@H](NC(=O)c2sc3nccc4c3c2NC(=O)N4c2ccc(Oc3ccccc3)cn2)C1 (relative stereo) [Example 344, N-((1*R,3*R)-3-Acrylamidocyclohexyl)-4-oxo-5-(5-phenoxypyridin-2-yl)-4,5-dihydro-3H-1-thia-3,5,8-triazaacenaphthylene-2-carboxamide]
[2]
  BTK_I_binding pIC50: 6.11

## C=CC(=O)N[C@H]1CCC[C@H]1NC(=O)c1sc2nccc3c2c1NC(=O)N3c1ccc(Oc2cccnn2)cn1 [Example 476, N-((1R,2S)-2-Acrylamidocyclopentyl)-4-oxo-5-(5-(pyridazin-3-yloxy)pyridin-2-yl)-4,5-dihydro-3H-1-thia-3,5,8-triazaacenaphthylene-2-carboxamide]
[2]
  BTK_I_binding pIC50: 6.20

## Cc1cc(Oc2ccccc2)ccc1N1C(=O)Nc2c(C(=O)NC3CCCCC3O)sc3nccc1c23 (racemic) [Example 27, N-((1RS,2RS)-2-Hydroxycyclohexyl)-5-(2-methyl-4-phenoxyphenyl)-4-oxo-4,5-dihydro-3H-1-thia-3,5,8-triazaacenaphthylene-2-carboxamide]
  IC50: 110 nM

## C=CC(=O)N[C@H]1CCC[C@H]1NC(=O)c1sc2nccc3c2c1NC(=O)N3c1cnc(CC(C)C)cc1C [Example 298, N-((1R,2S)-2-Acrylamidocyclopentyl)-5-(S)-(6-isobutyl-4-methylpyridin-3-yl)-4-oxo-4,5-dihydro-3H-1-thia-3,5,8-triazaacenaphthylene-2-carboxamide]
[2]
  BTK_I_binding pIC50: 8.09

## N[C@H]1CCCC[C@H]1NC(=O)c1sc2nccc3c2c1NC(=O)N3c1ccnc(-c2ccccc2)c1 [Example 260, N-((1R,2S)-2-Aminocyclohexyl)-4-oxo-5-(2-phenylpyridin-4-yl)-4,5-dihydro-3H-1-thia-3,5,8-triazaacenaphthylene-2-carboxamide]
[1]
  BTK_I_binding pIC50: 6.45
